In patent US20220370440A1 (Lead Discovery Center GmbH, priority 2018, published 2022):
Read-outs that look alike come from different tables or passages of the source.

Experiments:
[1] = biological target: EGFR wt (Homo sapiens, UniProt P00533); experiment: EGFR wt Lance assay; type: biochemical
Protocol: (§1) Inhibition is indicated as […] [nM] (“−”=not measured). Compounds having an activity designated as “A” provided an IC50≤100 nM; compounds having an activity designated as “B” provided an 100 nM<IC50≤500 nM; compounds having an activity designated as “C” provided an 500 nM<IC50≤1000 nM; compounds having an activity designated as “D” provided an 1000 nM<IC50≤100000 nM; and compounds having an activity designated as “E” provided an IC50>10000 nM.

[2] = test system: H1975; experiment: H1975 CellTiter-Glo; type: cell-based; conditions: Homo sapiens, NCI-H1975; 72 h compound incubation; read-out: H1975 CTG IC50
Protocol: (§2) 2. Measurement of Cellular Activity
(§3) The CellTiter-Glo Luminescent Cell Viability Assay (Promega) is a homogeneous method of determining the number of viable cells in culture. It is based on quantification of ATP, indicating the presence of metabolically active cells. Cells are seeded on day 1 at cell numbers that assure assay linearity and optimal signal intensity. After incubation for 24 h in humidified chambers at 37° C. and 5% CO2, compounds in DMSO are added at different concentrations. Cells are further incubated for 72 h at 37° C. and 5% CO2. Cells treated with the compound vehicle DMSO are used as positive controls and cells treated with 10 μM Staurosporine serve as negative controls. At day 5 the CellTiter Glo Reagent is prepared according to the instructions of the kit (Promega Inc.): Reagent is mixed 1:1 with cell culture medium. Thereon, mixture and assay plates are equilibrated at room temperature for 20 min. Equal volumes of the reagent-medium-mixture is added to the volume of culture medium present in each well. The plates are mixed at ˜200 rpm for 2 minutes on an orbital shaker. The microplates are then incubated at room temperature for 10 minutes for stabilization of the luminescent signal. Following incubation the luminescence is recorded on a Victor microplate reader (Perkin Elmer) using a 200 ms integration time. The data is then analyzed with Excel using the XLFIT Plugin (dose response Fit 205) for IC50-determination. As quality control the Z′-factor is calculated from 16 positive and negative control values. Only assay results showing a Z′-factor ≥0.5 are used for further analysis.
as §1

[3] = biological target: Her2 Exon 20 INSYVMA Ba/F3 (Homo sapiens, UniProt P04626, DUP772-775, cells depend on it); experiment: Her2 Exon 20 INSYVMA Ba/F3 CellTiter-Glo; type: cell-based; conditions: 72 h, read-out: Her2 Exon 20 INSYVMA Ba/F3 CTG IC50
Chain of Her2 Exon 20 INSYVMA Ba/F3 (P04626 with tags, fused parts or gaps DUP772-775): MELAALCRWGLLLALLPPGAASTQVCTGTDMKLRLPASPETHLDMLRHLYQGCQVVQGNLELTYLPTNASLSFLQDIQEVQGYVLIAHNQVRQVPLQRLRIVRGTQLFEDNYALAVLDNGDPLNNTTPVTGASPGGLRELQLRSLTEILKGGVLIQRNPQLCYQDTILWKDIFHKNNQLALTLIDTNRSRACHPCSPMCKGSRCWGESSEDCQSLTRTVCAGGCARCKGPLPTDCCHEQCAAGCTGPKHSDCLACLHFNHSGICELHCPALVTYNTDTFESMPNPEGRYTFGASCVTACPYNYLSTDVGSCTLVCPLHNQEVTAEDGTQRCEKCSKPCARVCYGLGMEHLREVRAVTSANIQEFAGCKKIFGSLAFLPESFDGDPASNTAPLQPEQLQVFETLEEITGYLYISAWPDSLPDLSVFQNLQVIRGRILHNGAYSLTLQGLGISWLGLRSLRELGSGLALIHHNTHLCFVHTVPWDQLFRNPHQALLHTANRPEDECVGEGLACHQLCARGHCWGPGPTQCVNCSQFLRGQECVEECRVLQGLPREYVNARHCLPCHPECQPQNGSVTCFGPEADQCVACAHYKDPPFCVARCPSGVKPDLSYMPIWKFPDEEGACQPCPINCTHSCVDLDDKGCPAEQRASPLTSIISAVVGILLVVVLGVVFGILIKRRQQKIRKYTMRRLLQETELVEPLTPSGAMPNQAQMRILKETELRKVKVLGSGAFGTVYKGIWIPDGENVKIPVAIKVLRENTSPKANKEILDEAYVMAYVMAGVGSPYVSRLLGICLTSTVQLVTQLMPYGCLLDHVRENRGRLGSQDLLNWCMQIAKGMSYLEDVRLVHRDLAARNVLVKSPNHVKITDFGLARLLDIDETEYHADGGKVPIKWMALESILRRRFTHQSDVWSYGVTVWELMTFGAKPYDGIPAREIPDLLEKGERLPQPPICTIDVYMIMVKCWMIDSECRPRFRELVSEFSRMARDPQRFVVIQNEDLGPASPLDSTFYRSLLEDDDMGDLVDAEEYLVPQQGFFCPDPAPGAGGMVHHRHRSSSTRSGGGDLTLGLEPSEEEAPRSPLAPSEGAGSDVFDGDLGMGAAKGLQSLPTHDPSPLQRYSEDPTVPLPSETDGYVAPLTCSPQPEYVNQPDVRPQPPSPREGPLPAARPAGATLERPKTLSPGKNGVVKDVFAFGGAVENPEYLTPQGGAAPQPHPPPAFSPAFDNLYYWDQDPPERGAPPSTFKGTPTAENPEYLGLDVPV
Protocol: as §2, §3
(§4) Inhibition is indicated as IC50 [nM] (“−”=not measured). Compounds having an activity designated as “A” provided an IC50≤100 nM; compounds having an activity designated as “B” provided an 100 nM<IC50≤500 nM; compounds having an activity designated as “C” provided an 500 nM<IC50≤1000 nM; compounds having an activity designated as “D” provided an 1000 nM<IC50≤10000 nM; and compounds having an activity designated as “E” provided an IC50>10000 nM.

[4] = biological target: T1, HER2 INS YVMA (Homo sapiens, UniProt P04626, INS775YVMA); experiment: Lance Kinase Activity Assay, HER2 INS YVMA (Her2 Exon 20 INSYVMA Lance); type: biochemical
T1 construct: purchased DPF
T1 sequence (P04626 with tags, fused parts or gaps INS775YVMA): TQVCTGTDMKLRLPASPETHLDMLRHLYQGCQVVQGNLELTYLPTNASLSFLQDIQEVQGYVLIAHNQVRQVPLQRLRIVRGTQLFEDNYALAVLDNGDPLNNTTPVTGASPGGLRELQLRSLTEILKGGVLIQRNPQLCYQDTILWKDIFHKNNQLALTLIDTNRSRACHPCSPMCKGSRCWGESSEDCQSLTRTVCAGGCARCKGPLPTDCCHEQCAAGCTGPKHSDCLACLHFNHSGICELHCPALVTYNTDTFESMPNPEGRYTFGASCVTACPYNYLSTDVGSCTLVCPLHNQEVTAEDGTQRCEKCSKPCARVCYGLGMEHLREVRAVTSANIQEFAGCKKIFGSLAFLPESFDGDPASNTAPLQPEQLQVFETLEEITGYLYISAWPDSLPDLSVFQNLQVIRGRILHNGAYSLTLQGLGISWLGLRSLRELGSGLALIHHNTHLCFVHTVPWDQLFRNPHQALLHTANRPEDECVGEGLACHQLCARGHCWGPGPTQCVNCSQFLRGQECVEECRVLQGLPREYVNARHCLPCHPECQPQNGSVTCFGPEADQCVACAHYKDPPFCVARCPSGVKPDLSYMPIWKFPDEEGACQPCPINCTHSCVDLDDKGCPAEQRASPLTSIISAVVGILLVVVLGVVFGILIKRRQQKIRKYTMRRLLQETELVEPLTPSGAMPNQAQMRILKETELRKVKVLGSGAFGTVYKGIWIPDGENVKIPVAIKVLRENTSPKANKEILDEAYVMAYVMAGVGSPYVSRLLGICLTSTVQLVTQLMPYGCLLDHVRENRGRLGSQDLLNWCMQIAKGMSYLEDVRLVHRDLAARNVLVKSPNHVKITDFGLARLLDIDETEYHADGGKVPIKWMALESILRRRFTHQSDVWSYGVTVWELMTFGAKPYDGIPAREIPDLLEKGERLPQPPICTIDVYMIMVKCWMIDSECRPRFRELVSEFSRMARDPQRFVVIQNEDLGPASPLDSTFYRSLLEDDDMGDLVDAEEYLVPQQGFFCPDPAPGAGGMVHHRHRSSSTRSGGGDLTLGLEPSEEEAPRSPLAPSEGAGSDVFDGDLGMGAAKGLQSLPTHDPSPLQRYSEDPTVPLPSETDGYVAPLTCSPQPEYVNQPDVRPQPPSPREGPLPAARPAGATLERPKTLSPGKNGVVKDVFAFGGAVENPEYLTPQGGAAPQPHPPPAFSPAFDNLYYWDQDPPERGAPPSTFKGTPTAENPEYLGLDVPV
Protocol: 1. Measurement of HER2 INS YVMA Kinase Activity
This protocol describes how the Lance Kinase Activity Assay was performed to determine IC50 values of compounds of general formula (I) against HER2 INS YVMA. The principle behind this enzymatic assay is based upon the phosphorylation of the Ulight-peptide substrate. It is detected by using a specific EU-labeled anti-phospho peptide antibody. The binding of the Eu labeled anti-phospho peptide antibody to the phosphorylated ULight labeled peptide gives rise to a FRET-signal.
Binding of an inhibitor to the kinase prevents phosphorylation of the Ulight-substrate, resulting in a loss of FRET. In table 2 is summarized the relevant information for the LANCE assay.
The compounds of general formula (I) summarized in Table 3 were serial diluted from a 10 mM DMSO stock solution 1:3 over 8 steps in a total volume of 20 μl.
For every sample, 8 μl of kinase-substrate mix was transferred into a suitable assay plate (e.g. Corning #3673). Compound was added via pintool transfer (10 nl/well) using a Biomek FX robot (BeckmanCoulter). Reaction was started by addition of 2 μl ATP working solution and mixed using variomag teleshaker (Thermo Fischer Scientific). After 1 h incubation at room temperature the reaction was stopped with 10 μl detection mix containing the Eu-labeled phosphospecific antibody and 10 mM EDTA. After a second incubation period of 1 h at room temperature the FRET signal was measured at 340 nm excitation, 665 nm and 615 nm emission (for the ULight-substrate and Eu-AB, respectively) with an Envision spectrophotometer (Perkin Elmer, Waltham, Mass., USA) with 50 μs delay and 300 μs integration time. IC50 values were determined from the sigmoidal dose response curves with the software Quattro Workflow (Quattro GmbH, Munich, Germany).

[5] = biological target: EGFR Exon 20 INSNPH Ba/F3 (Homo sapiens, UniProt P00533, DUP771-773, cells depend on it); experiment: EGFR Exon 20 INSNPH Ba/F3 CellTiter-Glo; type: cell-based; conditions: 72 h, read-out: EGFR Exon 20 INSNPH Ba/F3 CTG IC50
Protocol: as §2, §3, §4

[6] = biological target: EGFR T790ML858R (Homo sapiens, UniProt P00533, L858R/T790M); experiment: EGFR T790ML858R Lance assay; type: biochemical
Chain of EGFR T790ML858R (P00533 25-1210 T790M/L858R): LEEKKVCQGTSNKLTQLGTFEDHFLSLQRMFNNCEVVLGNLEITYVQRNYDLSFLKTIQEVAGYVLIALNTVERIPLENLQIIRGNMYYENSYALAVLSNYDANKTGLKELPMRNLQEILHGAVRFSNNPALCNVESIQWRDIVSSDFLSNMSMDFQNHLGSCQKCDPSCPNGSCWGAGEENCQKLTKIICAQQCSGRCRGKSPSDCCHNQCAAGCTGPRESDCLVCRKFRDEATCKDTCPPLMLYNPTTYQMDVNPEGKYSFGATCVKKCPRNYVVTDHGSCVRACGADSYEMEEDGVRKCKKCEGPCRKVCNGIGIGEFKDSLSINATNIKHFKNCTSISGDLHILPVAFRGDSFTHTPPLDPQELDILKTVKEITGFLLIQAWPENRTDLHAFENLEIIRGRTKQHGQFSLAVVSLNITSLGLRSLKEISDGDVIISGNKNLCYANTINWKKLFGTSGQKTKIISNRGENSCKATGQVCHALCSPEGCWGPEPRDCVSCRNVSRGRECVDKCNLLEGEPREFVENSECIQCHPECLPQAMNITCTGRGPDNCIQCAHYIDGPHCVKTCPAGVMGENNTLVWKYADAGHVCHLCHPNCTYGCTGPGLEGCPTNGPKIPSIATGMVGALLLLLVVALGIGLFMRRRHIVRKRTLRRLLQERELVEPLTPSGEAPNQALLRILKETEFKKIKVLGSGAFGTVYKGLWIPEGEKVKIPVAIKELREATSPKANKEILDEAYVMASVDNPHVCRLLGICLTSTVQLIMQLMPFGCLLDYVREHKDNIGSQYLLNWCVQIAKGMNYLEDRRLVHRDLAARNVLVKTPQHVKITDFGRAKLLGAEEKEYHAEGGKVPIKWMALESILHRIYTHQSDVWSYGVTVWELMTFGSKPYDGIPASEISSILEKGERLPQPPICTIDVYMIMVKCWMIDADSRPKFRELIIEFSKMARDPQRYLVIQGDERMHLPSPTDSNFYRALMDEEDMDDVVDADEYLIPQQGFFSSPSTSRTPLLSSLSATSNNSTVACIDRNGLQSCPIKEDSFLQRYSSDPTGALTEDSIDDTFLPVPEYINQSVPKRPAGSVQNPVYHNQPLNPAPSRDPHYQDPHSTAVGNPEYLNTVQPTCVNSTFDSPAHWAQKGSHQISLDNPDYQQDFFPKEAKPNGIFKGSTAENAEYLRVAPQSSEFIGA
Protocol: as §1

Chain of EGFR wt (P00533 25-1210): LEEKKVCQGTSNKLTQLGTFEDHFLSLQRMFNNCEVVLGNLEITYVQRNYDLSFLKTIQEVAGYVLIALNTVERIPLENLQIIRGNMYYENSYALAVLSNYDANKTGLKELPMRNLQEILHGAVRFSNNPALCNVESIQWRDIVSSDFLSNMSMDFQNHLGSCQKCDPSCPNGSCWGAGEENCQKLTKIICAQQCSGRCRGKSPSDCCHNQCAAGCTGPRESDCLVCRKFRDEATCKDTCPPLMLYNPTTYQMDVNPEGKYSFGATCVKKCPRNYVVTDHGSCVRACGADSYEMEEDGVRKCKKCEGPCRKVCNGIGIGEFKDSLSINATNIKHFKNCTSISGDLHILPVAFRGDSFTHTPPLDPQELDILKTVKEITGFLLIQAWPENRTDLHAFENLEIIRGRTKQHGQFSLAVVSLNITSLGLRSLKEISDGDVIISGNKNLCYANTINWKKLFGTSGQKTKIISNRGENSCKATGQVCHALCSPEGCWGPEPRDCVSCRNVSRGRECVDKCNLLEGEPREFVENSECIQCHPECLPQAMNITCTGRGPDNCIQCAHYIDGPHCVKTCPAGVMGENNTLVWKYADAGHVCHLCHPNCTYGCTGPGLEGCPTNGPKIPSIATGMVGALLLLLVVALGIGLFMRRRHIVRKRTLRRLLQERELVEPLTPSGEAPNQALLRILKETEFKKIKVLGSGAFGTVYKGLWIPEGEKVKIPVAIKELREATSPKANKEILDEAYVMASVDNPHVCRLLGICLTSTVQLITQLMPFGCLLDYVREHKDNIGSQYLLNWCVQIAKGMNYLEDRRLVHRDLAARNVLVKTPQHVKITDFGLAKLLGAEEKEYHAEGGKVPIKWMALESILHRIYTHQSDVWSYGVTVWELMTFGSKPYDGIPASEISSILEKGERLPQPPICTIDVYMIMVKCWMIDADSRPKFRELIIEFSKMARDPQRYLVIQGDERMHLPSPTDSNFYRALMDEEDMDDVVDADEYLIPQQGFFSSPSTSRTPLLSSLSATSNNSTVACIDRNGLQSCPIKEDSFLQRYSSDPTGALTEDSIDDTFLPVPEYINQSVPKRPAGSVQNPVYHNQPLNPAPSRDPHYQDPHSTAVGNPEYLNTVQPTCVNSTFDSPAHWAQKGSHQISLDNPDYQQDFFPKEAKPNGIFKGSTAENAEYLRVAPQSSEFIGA

| IC50 [1] | IC50 [2] | GI50 ([3]; CellTiter-Glo) | IC50 ([4]; biochemical Lance assay) | GI50 ([5]; CellTiter-Glo) | IC50 [6] | GI50 [3] | IC50 [4] | GI50 [5] | SMILES |
| --- | --- | --- | --- | --- | --- | --- | --- | --- | --- |
| ≤ 100 nM | ≤ 100 nM | 500 to 1000 nM | 100 to 500 nM | 500 to 1000 nM | ≤ 100 nM | – | – | – | C=CC(=O)Nc1cc(-c2c(-c3cccc(C(=O)NCCCN(C)Cc4ccccc4)c3)[nH]c3nccc(Cl)c23)ccc1C [Example 51, 3-(3-(3-acrylamido-4-methylphenyl)-4-chloro-1H-pyrrolo[2,3-b]pyridin-2-yl)-N-(3-(benzyl(methyl)amino)propyl)benzamide] |
| – | – | – | – | – | – | 754 nM | 916 nM | 1310 nM | CCC(=O)Nc1cc(-c2c(-c3ccc(N4CCN(C)CC4)cc3)[nH]c3nccc(Cl)c23)ccc1C [reference compound] |
| ≤ 100 nM | 100 to 500 nM | 1000 to 10000 nM | ≤ 100 nM | 1000 to 10000 nM | ≤ 100 nM | – | – | – | C=CC(=O)Nc1cc(-c2c(-c3cccc(C(=O)N4CCC5(CC4)CN(C)C5)c3)[nH]c3nccc(Cl)c23)ccc1C [Example 53, N-(5-(4-chloro-2-(3-(2-methyl-2,7-diazaspiro[3.5]nonane-7-carbonyl)phenyl)-1H-pyrrolo[2,3-b]pyridin-3-yl)-2-methylphenyl)acrylamide] |
| 500 to 1000 nM | 100 to 500 nM | 1000 to 10000 nM | 1000 to 10000 nM | 1000 to 10000 nM | 100 to 500 nM | – | – | – | C=CC(=O)Nc1cc(-c2c(-c3ccc(F)c(C(=O)N4CCOCC4)c3)[nH]c3nccc(Cl)c23)ccc1C [Example 33, N-(5-(4-chloro-2-(4-fluoro-3-(morpholine-4-carbonyl)phenyl)-1H-pyrrolo[2,3-b]pyridin-3-yl)-2-methylphenyl)acrylamide] |
| – | – | – | – | – | – | 64 nM | 5 nM | 35 nM | C=CC(=O)Nc1cc(-c2c(-c3ccc(N4CCN(C)CC4)cc3)[nH]c3nccc(Cl)c23)ccc1C [drawing 711] |
| 1000 to 100000 nM | 1000 to 100000 nM | 1000 to 10000 nM | > 10000 nM | 1000 to 10000 nM | 100 to 500 nM | – | – | – | C=CC(=O)Nc1cc(-c2c(-c3cccc(C(=O)N4CCCCCC4)c3)[nH]c3nccc(Cl)c23)ccc1C [Example 45, N-(5-(2-(3-(azepane-1-carbonyl)phenyl)-4-chloro-1H-pyrrolo[2,3-b]pyridin-3-yl)-2-methylphenyl)acrylamide] |
| ≤ 100 nM | ≤ 100 nM | 500 to 1000 nM | 100 to 500 nM | 500 to 1000 nM | ≤ 100 nM | – | – | – | C=CC(=O)Nc1cc(-c2c(-c3cccc(N4CCN(C(C)=O)CC4)c3)[nH]c3nccc(Cl)c23)ccc1C [Example 35, N-(5-(2-(3-(4-acetylpiperazin-1-yl)phenyl)-4-chloro-1H-pyrrolo[2,3-b]pyridin-3-yl)-2-methylphenyl)acrylamide] |
| 1000 to 100000 nM | 500 to 1000 nM | 1000 to 10000 nM | 1000 to 10000 nM | 1000 to 10000 nM | 100 to 500 nM | – | – | – | C=CC(=O)Nc1cc(-c2c(-c3ccc(Cl)c(C(=O)N4CCOCC4)c3)[nH]c3nccc(Cl)c23)ccc1C [Example 34, N-(5-(4-chloro-2-(4-chloro-3-(morpholine-4-carbonyl)phenyl)-1H-pyrrolo[2,3-b]pyridin-3-yl)-2-methylphenyl)acrylamide] |
| 500 to 1000 nM | 1000 to 100000 nM | 1000 to 10000 nM | 1000 to 10000 nM | 1000 to 10000 nM | ≤ 100 nM | – | – | – | C=CC(=O)Nc1cc(-c2c(-c3cccc(C(=O)N4CCC5(CCNC5=O)CC4)c3)[nH]c3nccc(Cl)c23)ccc1C [Example 46, N-(5-(4-chloro-2-(3-(1-oxo-2,8-diazaspiro[4.5]decane-8-carbonyl)phenyl)-1H-pyrrolo[2,3-b]pyridin-3-yl)-2-methylphenyl)acrylamide] |
| 100 to 500 nM | 100 to 500 nM | 500 to 1000 nM | 500 to 1000 nM | 1000 to 10000 nM | ≤ 100 nM | – | – | – | C=CC(=O)Nc1cc(-c2c(-c3cccc(C(=O)NC4CC4)c3)[nH]c3nccc(Cl)c23)ccc1C [Example 49, 3-(3-(3-acrylamido-4-methylphenyl)-4-chloro-1H-pyrrolo[2,3-b]pyridin-2-yl)-N-cyclopropylbenzamide] |
